Activity calls are given as the source filed them. The calls are words filed in the database; no cut-off is given here.

Experiment [1] deals with T1, Ribonuclease pancreatic (Bos taurus) (UniProt P61823).
T1 sequence (whole entry): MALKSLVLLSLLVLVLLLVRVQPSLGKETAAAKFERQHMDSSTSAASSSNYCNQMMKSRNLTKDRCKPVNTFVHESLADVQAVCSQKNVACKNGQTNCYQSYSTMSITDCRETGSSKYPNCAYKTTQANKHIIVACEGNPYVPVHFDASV
Briefly: Binding affinity to bovine RNase A in PBS buffer assessed as melting temperature at 1 uM after 3 hrs by UV spectroscopy (reference value: 62.7 +/- 0.1 degC).

In experiment [2] the target is T1, Ribonuclease pancreatic (Bos taurus). As to the kind of experiment: Binding affinity to bovine RNase A in PBS assessed as melting temperature at 10 uM after 3 hrs by UV spectroscopy (reference value: 62.7 +/- 0.1 degC).
Experiment [3] has the same target. Briefly: Induction of bovine RNaseA internalization in human K562 cells assessed as internalization count at 1 uM after 3 hrs by flow cytometry. The class given is cell-based.
For experiment [4] the target is unchanged. Briefly: Induction of bovine RNaseA internalization in human K562 cells assessed as internalization count at 10 uM after 3 hrs by flow cytometry. The class given is cell-based.
Experiment [5] has the same target. Briefly: Effect on bovine RNase A ribonucleolytic activity assessed as kcat/KM ratio of 6-FAM-dArUdAdA-6-TAMRA at 1 uM by fluorescence assay.
For experiment [6] the target is unchanged. Briefly: Effect on bovine RNase A ribonucleolytic activity assessed as kcat/KM ratio of 6-FAM-dArUdAdA-6-TAMRA at 10 uM by fluorescence assay.
The target in another experiment is T2, Ribonuclease pancreatic (Bos taurus, UniProt P61823).
T2 sequence (P61823 whole entry): T1 sequence (whole entry)
Briefly: Inhibition of bovine RNase A interaction to ribonuclease inhibitor protein after 30 mins by competition assay.

For experiment [7], the system named is K562. Briefly: Potentiation of bovine wild type RNase-A-induced cytotoxicity against human K562 cells assessed as incorporation of [methyl-3H]-thymidine into cellular DNA at 1 to 10 uM after 4 hrs by liquid scintillation counting. The experiment is classed as functional, cell-based.
The subject of experiment [8] is K562. Briefly: Potentiation of bovine RNase-A G88R mutant-induced cytotoxicity against human K562 cells assessed as incorporation of [methyl-3H]-thymidine into cellular DNA at 10 uM after 4 hrs by liquid scintillation counting. The class given is functional.
For experiment [9], the system named is K562. As to the kind of experiment: Potentiation of bovine RNase-A DRNG mutant-induced cytotoxicity against human K562 cells assessed as incorporation of [methyl-3H]-thymidine into cellular DNA at 10 uM after 4 hrs by liquid scintillation counting. The class given is functional.

With `NCCNC(=O)CCN(CCNC(=O)CCN(CCNC(=O)CCN(CCC(=O)NCCN(CCC(=O)NCCN(CCC(=O)NCCN)CCC(=O)NCCN)CCC(=O)NCCN(CCC(=O)NCCN)CCC(=O)NCCN)CCN(CCC(=O)NCCN(CCC(=O)NCCN(CCC(=O)NCCN)CCC(=O)NCCN)CCC(=O)NCCN(CCC(=O)NCCN)CCC(=O)NCCN)CCC(=O)NCCN(CCC(=O)NCCN(CCC(=O)NCCN)CCC(=O)NCCN)CCC(=O)NCCN(CCC(=O)NCCN)CCC(=O)NCCN)CCC(=O)NCCN(CCC(=O)NCCN)CCC(=O)NCCN)CCC(=O)NCCN` [POLY(AMIDOAMINE)DENDRIMER], the values for the Tm in experiment [1] and in experiment [2] were 62.8 °C and 63.2 °C, respectively. Besides, the outcome (in experiment [3]; in [4]; in experiment [5]; in experiment [6]; in the experiment on K562 [7]) was inactive. For the same molecule, the Kd on Ribonuclease pancreatic worked out at 3.1 µM. The “fold change (FC)” value with K562 [8] and with K562 [9] was 5 each time.

Source of the values: ChEMBL document CHEMBL2146459, “Potentiation of ribonuclease cytotoxicity by a poly(amidoamine) dendrimer” (Bioorg Med Chem Lett, 2011).
